Experimental data from US11957759B1, “Rapidly accelerated fibrosarcoma (RAF) degrading compounds and associated methods of use” (Arvinas Operations, Inc., priority 2022, dated 2024).

Tests used:
B-RAF G466V = target: T1, B-RAF G466V (Homo sapiens, UniProt P15056, G466V); test: Target protein degradation, assay D: T-Rex 293 cells, HA-BRAF_G466V, 384 well format; type: cell-based; conditions: T-Rex 293 HA-BRAF_G466V cells, 24 hours, Examples 83-269; for DC50: Assay D; for Dmax: T-REx-293, Assay D
T1 construct: expressed in transfected cells; host or cells: T-Rex 293 cells (Invitrogen #R71007)
In short: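 T-Rex 293 cells stably expressing doxycycline-induced (1 ng/mL) HA-BRAF G466V treated 24 h at 37 °C with PROTACs, 11-point 1:3 dilution, 300 nM to 5 pM final, 0.5% DMSO. Fixed cells immunostained for HA and imaged by high-content microscopy; DC50 and Dmax (% of control) derived, toxicity from nuclei counts versus DMSO.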

B-RAF V600E = target: T2, B-RAF V600E (Homo sapiens, UniProt P15056, V600E); test: Target protein degradation, assay C: T-Rex 293 cells, HA-BRAF_V600E, 384 well format; type: cell-based; conditions: T-Rex 293 HA-BRAF_V600E cells, 24 hours, Examples 83-269; for DC50: Assay C; for Dmax: T-REx-293, Assay C
T2 construct: expressed in transfected cells; host or cells: T-Rex 293 cells (Invitrogen #R71007)
In short: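 T-Rex 293 cells stably expressing doxycycline-induced (1 ng/mL) HA-BRAF V600E were treated 24 h at 37 °C with compound (300 nM–5 pM, 11 points, 0.5% DMSO). HA immunofluorescence was quantified by high-content imaging to give DC50 and Dmax (% of control); nuclei counts versus DMSO gauged toxicity.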

T2 sequence (P15056 whole entry V600E): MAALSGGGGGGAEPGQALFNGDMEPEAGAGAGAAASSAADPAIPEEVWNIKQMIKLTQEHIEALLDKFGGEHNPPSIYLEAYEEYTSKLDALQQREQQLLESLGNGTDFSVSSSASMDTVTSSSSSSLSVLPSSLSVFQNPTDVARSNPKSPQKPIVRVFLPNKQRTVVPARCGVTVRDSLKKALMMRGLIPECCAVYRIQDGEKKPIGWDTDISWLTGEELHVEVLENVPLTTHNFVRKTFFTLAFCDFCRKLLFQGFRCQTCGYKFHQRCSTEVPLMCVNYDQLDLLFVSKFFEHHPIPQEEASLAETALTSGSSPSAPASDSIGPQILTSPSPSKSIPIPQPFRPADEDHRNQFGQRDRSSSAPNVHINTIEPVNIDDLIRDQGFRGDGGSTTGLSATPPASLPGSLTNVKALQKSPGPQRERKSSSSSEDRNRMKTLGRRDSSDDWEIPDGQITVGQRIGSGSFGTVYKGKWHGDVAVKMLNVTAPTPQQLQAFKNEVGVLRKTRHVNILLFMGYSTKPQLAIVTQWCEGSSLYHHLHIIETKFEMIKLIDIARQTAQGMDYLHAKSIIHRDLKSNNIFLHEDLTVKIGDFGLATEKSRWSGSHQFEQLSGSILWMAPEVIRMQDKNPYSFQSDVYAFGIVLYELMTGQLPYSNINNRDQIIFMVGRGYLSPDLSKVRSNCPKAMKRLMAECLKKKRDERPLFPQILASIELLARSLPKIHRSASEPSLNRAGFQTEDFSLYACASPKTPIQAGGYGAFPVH
T1 sequence (P15056 whole entry G466V): as the sequence (P15056 whole entry V600E) above, with G466V, E600V counted along it

| Compound | DC50 (B-RAF G466V) [nM] | Dmax (B-RAF G466V) [%] | DC50 (B-RAF V600E) [nM] | Dmax (B-RAF V600E) [%] |
| --- | --- | --- | --- | --- |
| N#Cc1c(NS(=O)(=O)N2CC[C@@H](F)C2)ccc(F)c1Oc1ccc2ncn(-c3ccc(N4CCC(CN5CCN(CC6CCN(c7ccc8c(c7)CN([C@@H]7CCC(=O)NC7=O)C8=O)CC6)CC5)CC4)cc3)c(=O)c2c1 [Example 186, (3R)-N-{2-cyano-3-[(3-{4-[4-({4-[(1-{2-[(3R)-2,6-dioxopiperidin-3-yl]-1-oxo-2,3-dihydro-1H-isoindol-5-yl}piperidin-4-yl)methyl]piperazin-1-yl}methyl)piperidin-1-yl]phenyl}-4-oxo-3,4-dihydroquinazolin-6-yl)oxy]-4-fluorophenyl}-3-fluoropyrrolidine-1-sulfonamide] | 10 to 30 | ≤ 35 | 50 to 500 | 35 to 70 |
| N#Cc1c(NS(=O)(=O)N2CC[C@H](F)C2)ccc(F)c1Oc1ccc2ncn(-c3ccc(N4CCN(CC5CN(c6ccc7c(c6)CN([C@@H]6CCC(=O)NC6=O)C7=O)C5)CC4)cc3)c(=O)c2c1 [Example 196, (3S)-N-(2-cyano-3-{[3-(4-{4-[(1-{2-[(3R)-2,6-dioxopiperidin-3-yl]-1-oxo-2,3-dihydro-1H-isoindol-5-yl}azetidin-3-yl)methyl]piperazin-1-yl}phenyl)-4-oxo-3,4-dihydroquinazolin-6-yl]oxy}-4-fluorophenyl)-3-fluoropyrrolidine-1-sulfonamide] | 1 to 10 | 35 to 70 | 50 to 500 | 35 to 70 |
| N#Cc1c(NS(=O)(=O)N2CC[C@@H](F)C2)ccc(F)c1Oc1ccc2ncn(-c3ccc(N4CCC(c5ccc6c(c5)CN(C5CCC(=O)NC5=O)C6=O)CC4)nc3)c(=O)c2c1 (stereo partly drawn) [Example 136, (3R)-N-(2-cyano-3-{[3-(6-{4-[2-(2,6-dioxopiperidin-3-yl)-1-oxo-2,3-dihydro-1H-isoindol-5-yl]piperidin-1-yl}pyridin-3-yl)-4-oxo-3,4-dihydroquinazolin-6-yl]oxy}-4-fluorophenyl)-3-fluoropyrrolidine-1-sulfonamide] | 1 to 10 | 35 to 70 | 5 to 50 | ≤ 35 |
| N#Cc1c(NS(=O)(=O)N2CC[C@@H](F)C2)ccc(F)c1Oc1ccc2ncn(-c3ccc(N4CCC5(CCN(CC6CCN(c7ccc8c(c7)C(=O)N(C7CCC(=O)NC7=O)C8=O)CC6)CC5)CC4)nc3)c(=O)c2c1 (stereo partly drawn) [Example 145, (3R)-N-{2-cyano-3-[(3-{6-[9-({1-[2-(2,6-dioxopiperidin-3-yl)-1,3-dioxo-2,3-dihydro-1H-isoindol-5-yl]piperidin-4-yl}methyl)-3,9-diazaspiro[5.5]undecan-3-yl]pyridin-3-yl}-4-oxo-3,4-dihydroquinazolin-6-yl)oxy]-4-fluorophenyl}-3-fluoropyrrolidine-1-sulfonamide] | 1 to 10 | 35 to 70 | 50 to 500 | 35 to 70 |
| N#Cc1c(NS(=O)(=O)N2CC[C@@H](F)C2)ccc(F)c1Oc1ccc2ncn(-c3ccc(N4CCN(C(=O)C5CN(c6ccc7c(c6)CN([C@H]6CCC(=O)NC6=O)C7=O)C5)CC4)cc3)c(=O)c2c1 [Example 243, (3R)-N-{2-cyano-3-[(3-{4-[4-(1-{2-[(3S)-2,6-dioxopiperidin-3-yl]-1-oxo-2,3-dihydro-1H-isoindol-5-yl}azetidine-3-carbonyl)piperazin-1-yl]phenyl}-4-oxo-3,4-dihydroquinazolin-6-yl)oxy]-4-fluorophenyl}-3-fluoropyrrolidine-1-sulfonamide] | 10 to 30 | 35 to 70 | > 500 | – |
| N#Cc1c(NS(=O)(=O)N2CC[C@@H](F)C2)ccc(F)c1Oc1ccc2ncn(-c3ccc(N4CCN(CC5CCN(c6ccc7c(c6F)CN([C@H]6CCC(=O)NC6=O)C7=O)CC5)CC4)cn3)c(=O)c2c1 [Example 114, (3R)-N-(2-cyano-3-{[3-(5-{4-[(1-{2-[(3S)-2,6-dioxopiperidin-3-yl]-4-fluoro-1-oxo-2,3-dihydro-1H-isoindol-5-yl}piperidin-4-yl)methyl]piperazin-1-yl}pyridin-2-yl)-4-oxo-3,4-dihydroquinazolin-6-yl]oxy}-4-fluorophenyl)-3-fluoropyrrolidine-1-sulfonamide] | 1 to 10 | 35 to 70 | 50 to 500 | ≤ 35 |
| COc1cc(N2CC(CN3CCN(c4ccc(-n5cnc6ccc(Oc7c(F)ccc(NS(=O)(=O)N8CC[C@@H](F)C8)c7C#N)cc6c5=O)cc4)CC3)C2)cc2c1C(=O)N([C@@H]1CCC(=O)NC1=O)C2 [Example 237, (3R)-N-(2-cyano-3-{[3-(4-{4-[(1-{2-[(3R)-2,6-dioxopiperidin-3-yl]-7-methoxy-1-oxo-2,3-dihydro-1H-isoindol-5-yl}azetidin-3-yl)methyl]piperazin-1-yl}phenyl)-4-oxo-3,4-dihydroquinazolin-6-yl]oxy}-4-fluorophenyl)-3-fluoropyrrolidine-1-sulfonamide] | 1 to 10 | ≥ 70 | 50 to 500 | 35 to 70 |
| N#Cc1c(NS(=O)(=O)N2CC[C@@H](F)C2)ccc(F)c1Oc1ccc2ncn(-c3ccc(N4CCN(CC5CC6(C5)CN(c5ccc7c(c5)CN([C@H]5CCC(=O)NC5=O)C7=O)C6)CC4)cc3)c(=O)c2c1 [Example 179, (3R)—N-(2-cyano-3-{[3-(4-{4-[(2-{2-[(3S)-2,6-dioxopiperidin-3-yl]-1-oxo-2,3-dihydro-1H-isoindol-5-yl}-2-azaspiro[3.3]heptan-6-yl)methyl]piperazin-1-yl}phenyl)-4-oxo-3,4-dihydroquinazolin-6-yl]oxy}-4-fluorophenyl)-3-fluoropyrrolidine-1-sulfonamide] | 1 to 10 | ≥ 70 | 50 to 500 | ≥ 70 |
| N#Cc1c(NS(=O)(=O)N2CC[C@@H](F)C2)ccc(F)c1Oc1ccc2ncn(-c3ccc(N4CC5(CCN(CC6CCN(c7ccc8c(c7)CN([C@@H]7CCC(=O)NC7=O)C8=O)CC6)CC5)C4)cc3)c(=O)c2c1 [Example 193, (3R)-N-(2-cyano-3-{[3-(4-{7-[(1-{2-[(3R)-2,6-dioxopiperidin-3-yl]-1-oxo-2,3-dihydro-1H-isoindol-5-yl}piperidin-4-yl)methyl]-2,7-diazaspiro[3.5]nonan-2-yl}phenyl)-4-oxo-3,4-dihydroquinazolin-6-yl]oxy}-4-fluorophenyl)-3-fluoropyrrolidine-1-sulfonamide] | 1 to 10 | 35 to 70 | 50 to 500 | 35 to 70 |
| N#Cc1c(NS(=O)(=O)N2CC[C@@H](F)C2)ccc(F)c1Oc1ccc2ncn(-c3ccc(N4CCN(C(=O)C5CCN(c6ccc7c(c6)CN(C6CCC(=O)NC6=O)C7=O)CC5)CC4)cc3)c(=O)c2c1 (single isomer, unassigned) [Example 241, (3R)-N-{2-cyano-3-[(3-{4-[4-(1-{2-[(3R*)-2,6-dioxopiperidin-3-yl]-1-oxo-2,3-dihydro-1H-isoindol-5-yl}piperidine-4-carbonyl)piperazin-1-yl]phenyl}-4-oxo-3,4-dihydroquinazolin-6-yl)oxy]-4-fluorophenyl}-3-fluoropyrrolidine-1-sulfonamide] | > 30 | 35 to 70 | > 500 | – |
